The source made the active and inactive calls. No cut-off for these calls is given here.
Legend:
Influenza A virus [1] = assay: Antiviral activity against Influenza A virus A/PR/8/34 (H1N1) infected in MDCK cells assessed as reduction in virus-induced cytopathic effect incubated for 5 days by CCK8 based microplate spectrophotometric analysis; assay type: functional, organism-based; conditions: 120 h; for EC90: time 5 day
[2] = Prodrug conversion in BALB/c mouse assessed as Baloxavir Cmax at 5 mg/kg, po measured after 24 hrs by LC-MS/MS analysis; assay type: ADME, organism-based; conditions: in vivo
[3] = Prodrug conversion in BALB/c mouse assessed as Baloxavir half-life at 5 mg/kg, po measured after 24 hrs by LC-MS/MS analysis; assay type: ADME, organism-based; conditions: in vivo
[4] = Prodrug conversion in BALB/c mouse assessed as Baloxavir AUC (0 to last) at 5 mg/kg, po measured after 24 hrs by LC-MS/MS analysis; assay type: ADME, organism-based; conditions: in vivo
Influenza A virus [5] = assay: Antiviral activity against Influenza A virus A/PR/8/34 infected in BALB/c mouse assessed as reduction in viral load in lungs at 5 mg/kg, po pre-infected with virus for 48 hrs followed by twice daily compound administration starting from day 2 and measured 1 hrs after last dose on day 5 by crystal violet staining based analysis; assay type: functional, organism-based; conditions: time 73.0 hrs
[6] = Inhibition of influenza A virus A/WSN/33 (H1N1) RNA polymerase transfected in HEK293T/17 cells incubated for 24 hrs by dual luciferase reporter gene assay; assay type: cell-based; conditions: HEK293T/17, 24 h
Influenza A virus [7] = assay: Antiviral activity against Influenza A virus A/California/07/2009 (H1N1) infected in MDCK cells assessed as reduction in virus-induced cytopathic effect incubated for 5 days by CCK8 based microplate spectrophotometric analysis; assay type: functional, organism-based; conditions: 120 h
Influenza A virus [8] = assay: Antiviral activity against Influenza A virus A/California/2/2014 (H3N2) infected in MDCK cells assessed as reduction in virus-induced cytopathic effect incubated for 5 days by CCK8 based microplate spectrophotometric analysis; assay type: functional, organism-based; conditions: 120 h
Influenza B virus [9] = assay: Antiviral activity against Influenza B virus B/Lee/40 infected in MDCK cells assessed as reduction in virus-induced cytopathic effect incubated for 5 days by CCK8 based microplate spectrophotometric analysis; assay type: functional, organism-based; conditions: B/Lee/40, MDCK, 120 h
Influenza B virus [10] = assay: Antiviral activity against Influenza B virus B/Florida/78/2015 infected in MDCK cells assessed as reduction in virus-induced cytopathic effect incubated for 5 days by CCK8 based microplate spectrophotometric analysis; assay type: functional, organism-based; conditions: B/Florida/78/2015, MDCK, 120 h
Influenza B virus [11] = assay: Potency index, ratio of baloxavir EC50 to test compound EC50 for antiviral activity against Influenza B virus B/Lee/40 infected in MDCK cells assessed as reduction in virus-induced cytopathic effect incubated for 5 days by CCK8 based microplate spectrophotometric analysis; assay type: functional; conditions: time 5 day
Influenza B virus [12] = assay: Potency index, ratio of baloxavir EC50 to test compound EC50 for antiviral activity against Influenza B virus B/Florida/78/2015 infected in MDCK cells assessed as reduction in virus-induced cytopathic effect incubated for 5 days by CCK8 based microplate spectrophotometric analysis; assay type: functional; conditions: time 5 day
COLO 205 = assay: Cytotoxicity against human COLO 205 cells incubated for 3 days by CellTiter-Glo assay; assay type: functional; conditions: COLO 205, 72 h, time 3 day
HepG2 = assay: Cytotoxicity against human HepG2 cells incubated for 3 days by CellTiter-Glo assay; assay type: functional; conditions: HepG2, 72 h, time 3 day
HEK293 = assay: Cytotoxicity against HEK293 cells incubated for 3 days by CellTiter-Glo assay; assay type: functional; conditions: Homo sapiens, HEK293, 72 h; time 3 day
MRC5 = assay: Cytotoxicity against human MRC5 cells incubated for 3 days by CellTiter-Glo assay; assay type: functional; conditions: MRC5, 72 h, time 3 day
A-375 = assay: Cytotoxicity against human A-375 cells incubated for 3 days by CellTiter-Glo assay; assay type: functional; conditions: A-375, 72 h, time 3 day
MOLT-4 = assay: Cytotoxicity against human MOLT-4 cells incubated for 3 days by CellTiter-Glo assay; assay type: functional; conditions: MOLT-4, 72 h, time 3 day
HEp-2 = assay: Cytotoxicity against human HEp-2 cells incubated for 3 days by CellTiter-Glo assay; assay type: functional; conditions: HEp-2, 72 h, time 3 day
H1-HeLa = assay: Cytotoxicity against human H1-HeLa cells incubated for 3 days by CellTiter-Glo assay; assay type: functional; conditions: 72 h, time 3 day
CCRF-CEM = assay: Cytotoxicity against human CCRF-CEM cells incubated for 3 days by CellTiter-Glo assay; assay type: functional; conditions: 72 h, time 3 day
[13] = Selectivity index, ratio of CC50 for human MOLT-4 cells to EC50 for antiviral activity against Influenza B virus B/Lee/40 infected in MDCK cells; assay type: functional
[14] = Protein binding in mouse plasma assessed as unbound fraction at 400 uM incubated for 4 hrs by LC-MS/MS analysis; assay type: ADME, cell-free
[15] = Protein binding in dog plasma assessed as unbound fraction at 400 uM incubated for 4 hrs by LC-MS/MS analysis; assay type: ADME, cell-free, Canis lupus familiaris
[16] = Protein binding in cynomolgus monkey plasma assessed as unbound fraction at 400 uM incubated for 4 hrs by LC-MS/MS analysis; assay type: ADME, cell-free, Macaca fascicularis
[17] = Protein binding in human plasma assessed as unbound fraction at 400 uM incubated for 4 hrs by LC-MS/MS analysis; assay type: ADME, cell-free
[18] = Metabolic stability in mouse liver microsomes assessed as intrinsic clearance at 1 uM measured upto 60 mins in presence of NADPH by LC-MS/MS analysis; assay type: ADME, Microsome; conditions: 1 h
[19] = Metabolic stability in dog liver microsomes assessed as intrinsic clearance at 1 uM measured upto 60 mins in presence of NADPH by LC-MS/MS analysis; assay type: ADME, Canis lupus familiaris, Microsome; conditions: 1 h
[20] = Metabolic stability in cynomolgus monkey liver microsomes assessed as intrinsic clearance at 1 uM measured upto 60 mins in presence of NADPH by LC-MS/MS analysis; assay type: ADME, Macaca fascicularis, Microsome; conditions: 1 h
[21] = Metabolic stability in human liver microsomes assessed as intrinsic clearance at 1 uM measured upto 60 mins in presence of NADPH by LC-MS/MS analysis; assay type: ADME, Microsome; conditions: 1 h
[22] = Clearance in BALB/c mouse at 2 mg/kg, iv measured after 24 hrs by LC-MS/MS analysis; assay type: ADME, organism-based; conditions: in vivo
[23] = Volume of distribution at steady state in BALB/c mouse at 2 mg/kg, iv measured after 24 hrs by LC-MS/MS analysis; assay type: ADME, organism-based; conditions: in vivo, read-out: Vdss
[24] = Half-life in BALB/c mouse at 2 mg/kg, iv measured after 24 hrs by LC-MS/MS analysis; assay type: ADME, organism-based; conditions: in vivo
[25] = AUC (0 to last) in BALB/c mouse at 2 mg/kg, iv measured after 24 hrs by LC-MS/MS analysis; assay type: ADME, organism-based; conditions: in vivo
[26] = Clearance in Beagle dog at 0.25 mg/kg, iv measured after 24 hrs by LC-MS/MS analysis; assay type: ADME, organism-based, Canis lupus familiaris; conditions: in vivo
[27] = Volume of distribution at steady state in Beagle dog at 0.25 mg/kg, iv measured after 24 hrs by LC-MS/MS analysis; assay type: ADME, organism-based, Canis lupus familiaris; conditions: in vivo, read-out: Vdss
[28] = Half-life in Beagle dog at 0.25 mg/kg, iv measured after 24 hrs by LC-MS/MS analysis; assay type: ADME, organism-based, Canis lupus familiaris; conditions: in vivo
[29] = AUC (0 to last) in Beagle dog at 0.25 mg/kg, iv measured after 24 hrs by LC-MS/MS analysis; assay type: ADME, organism-based, Canis lupus familiaris; conditions: in vivo
[30] = Clearance in cynomolgus monkey at 0.25 mg/kg, iv measured after 24 hrs by LC-MS/MS analysis; assay type: ADME, organism-based, Macaca fascicularis; conditions: in vivo
[31] = Volume of distribution at steady state in cynomolgus monkey at 0.25 mg/kg, iv measured after 24 hrs by LC-MS/MS analysis; assay type: ADME, organism-based, Macaca fascicularis; conditions: in vivo, read-out: Vdss
[32] = Half-life in cynomolgus monkey at 0.25 mg/kg, iv measured after 24 hrs by LC-MS/MS analysis; assay type: ADME, organism-based, Macaca fascicularis; conditions: in vivo
[33] = AUC (0 to last) in cynomolgus monkey at 0.25 mg/kg, iv measured after 24 hrs by LC-MS/MS analysis; assay type: ADME, organism-based, Macaca fascicularis; conditions: in vivo

Work on CN1C(=O)c2c(O)c(=O)ccn2N2[C@H](c3ccccc3C#N)c3cc(F)c(F)cc3OCC[C@@H]12 (racemic) yielded an EC50 (Influenza A virus [1]) greater than 0.5 µM and an EC90 (Influenza A virus [1]) greater than 0.5 µM.

With CC(C)N1C(=O)c2c(O)c(=O)ccn2N2[C@H](c3ccccc3)c3ccccc3OCC[C@@H]12 (racemic) the EC50 (Influenza A virus [1]) was 0.053 µM and the EC90 (Influenza A virus [1]) was 0.105 µM.

CN1C(=O)c2c(O)c(=O)ccn2N2[C@H](c3ccccc3)c3ccccc3OCC[C@@H]12 showed an EC50 (Influenza A virus [1]) of 0.014 µM and an EC90 (Influenza A virus [1]) of 0.026 µM.

Molecule COC(=O)OCOc1c2n(ccc1=O)N([C@@H]1c3ccccc3SCc3c1ccc(F)c3F)[C@@H]1COCCN1C2=O [BALOXAVIR MARBOXIL] has a Cmax [2] of 145 nM, a t1/2 [3] of 4.1 h and an AUClast [4] of 0.88 µM·h. The Activity (Influenza A virus [5]) was “Active”.

Molecule CN1C(=O)c2c(O)c(=O)ccn2N2[C@H](c3ccccc3)c3cc(F)c(F)cc3OCC[C@@H]12 has an EC50 (Influenza A virus [1]) of 0.0072 µM, an EC90 (Influenza A virus [1]) of 0.012 µM and an EC50 [6] of 0.0123 µM. For the same molecule, the EC50 (Influenza A virus [7]) was 0.0026 µM, the EC90 (Influenza A virus [7]; time 5 day) was 0.0042 µM and the EC50 (Influenza A virus [8]) was 0.0012 µM. The EC90 (Influenza A virus [8]; time 5 day) was 0.0032 µM, the EC50 (Influenza B virus [9]) was 0.0085 µM and the EC90 (Influenza B virus [9]; time 5 day) was 0.016 µM. The EC50 (Influenza B virus [10]) was 0.0009 µM, the EC90 (Influenza B virus [10]; time 5 day) was 0.0016 µM and the “Ratio EC50” value (Influenza B virus [11]) was 3. For the same molecule, the “Ratio EC50” value (Influenza B virus [12]) was 3, the CC50 (COLO 205) was 7.04 µM and the CC50 (HepG2) was 5.19 µM. It also gave a CC50 (HEK293) of 20.3 µM, a CC50 (MRC5) of 19.9 µM and a CC50 (A-375) of 13.3 µM. For the same molecule, the CC50 (MOLT-4) was 4.13 µM, the CC50 (HEp-2) was 12.5 µM and the CC50 (H1-HeLa) was 9.77 µM. The CC50 (CCRF-CEM) was 6.48 µM, the “Ratio CC50/EC50” value [13] was greater than 485 and the fraction unbound at 4 h, 400 µM [14] was 0.122. For the same molecule, the fraction unbound at 4 h, 400 µM [15] was 0.218, the fraction unbound at 4 h, 400 µM [16] was 0.382 and the fraction unbound at 4 h, 400 µM [17] was 0.103. The CLH [18] was 0.1106 mL/min/kg, the CLH [19] was 0.0138 mL/min/kg and the CLH [20] was less than 0.013 mL/min/kg. The CLint [21] was less than 8.6 µL/min/mg, the clearance [22] was 57.4 mL/min/kg and the Vd [23] was 4.41 L/kg. For the same molecule, the half-life [24] was 1.2 h, the AUC(0-t) at 24 h [25] was 1.32 µM·h and the clearance [26] was 20.8 mL/min/kg. The Vd [27] was 3.74 L/kg, the half-life [28] was 2.6 h and the AUC(0-t) at 24 h [29] was 0.576 µM·h. For the same molecule, the clearance [30] was 20.8 mL/min/kg, the Vd [31] was 3.68 L/kg and the half-life [32] was 2.2 h. The AUC(0-t) at 24 h [33] was 0.458 µM·h.

For CN1C(=O)c2c(O)c(=O)ccn2N2[C@H](c3ccccc3F)c3cc(F)c(F)cc3OCC[C@@H]12, the EC50 (Influenza A virus [1]) was 0.011 µM and the EC90 (Influenza A virus [1]) was 0.016 µM.

Molecule CN1C(=O)c2c(O)c(=O)ccn2N2[C@H](c3ccccc3)c3ccc(F)c(F)c3OCC[C@@H]12 (racemic) has an EC50 (Influenza A virus [1]) of 0.05 µM and an EC90 (Influenza A virus [1]) of 0.093 µM.
